Test results reported in US8461410B2, “Wound dressing materials comprising complexes of anionic polysaccharides with silver” (Ethicon, Inc., priority 2002, dated 2013).

Experiments:
Staphylococcus aureus = test: Zone of inhibition test of bactericidal activity (Procedure 1); type: cell-based; conditions: 2 cm x 2 cm sample on inoculated DSA plate, 37° C., read every 24 hours; FIGS. 1 and 2
Protocol: (§1) Six 2 cm×2 cm squares of each sample were cut out in sterile conditions. On day one of the experiment cultures of both Pseudomonas aeruginosa and Staphylococcus aureus were incubated aerobically at 37° C. for 24 hours on Diagnostic Sensitivity Agar (DSA). After 24 hours test samples were each placed on a DSA plate and were immediately wetted with 0.5 mls of a buffer solution. Three squares of sample were placed on plates inoculated with Pseudomonas aeruginosa and three were placed on plates inoculated with Staphylococcus aureus. The plates were then incubated at 37° C. for 24 hours. The zone of inhibited growth around the sample was then measured using callipers and the test sample was placed on a new inoculated DSA plate. A swab test was carried out on the area beneath the sample to determine if the sample was bacteriostatic if not bactericidal by smearing the swab on a DSA plate and incubating it for 24 hours and then examining the growth. The samples were transferred onto fresh inoculated plates with the above procedure being carried out every 24 hours for 72 hours as long as the samples remain intact.
(§2) As a negative control, a freeze dried sponge of 45% ORC/55% collagen without any silver was tested.

Pseudomonas aeruginosa = test: as above; type: cell-based; conditions: 2 cm x 2 cm sample on inoculated DSA plate, 37° C., read every 24 hours; FIG. 3
Protocol: as §1, §2

In the case of `O=[N+]([O-])[O-].[Ag+]` [silver nitrate solution (0.5%), silver nitrate], the “bactericidal effect / zone of inhibition against Staphylococcus aureus” value (Staphylococcus aureus) is reported as “zones of inhibition were observed” and the “bactericidal effect / zone of inhibition against Pseudomonas aeruginosa” value (Pseudomonas aeruginosa) is reported as “zones of inhibition were observed”.
